This is an account of results in article PMC6470784, “Effect of Stereochemical Configuration on the Transport and Metabolism of Catechins from Green Tea across Caco-2 Monolayers” (Molecules, 2019).

Where a name gives a salt, the structure may show the parent alone. Read-outs that look alike come from different tables or passages of the source.

Details of series [1]: method as in PMID 10909265. To be noted: rats, cited from earlier work.
Series [2] concerns MRP2. As to the kind of experiment: MRP2 mRNA level in Caco-2 cells (qRT-PCR). The class given is cell-based, human. The note with it: 300 μmol/L, 2 h. How it is done:
The Caco-2 cells were seeded in six-well plates (Corning Costar Co., NY, USA) at a density of 4 × 10^4 cells/cm^2, and were cultured for 21 days. After incubation with each tea catechins (300 μmol/L in full culture medium) for 2 h or 24 h, the total RNA from the Caco-2 cells were isolated with a Total RNA Kit (Aidlab, Beijing, China). First-strand cDNA was synthesized using a cDNA synthesis Kit (Aidlab, Beijing, China). The gene expression of MRP2 was examined by quantitative real-time PCR with the SYBR Green qPCR Mix (Aidlab, Beijing, China) in an ABI7500 Real-Time System (Applied Biosystems, USA). The reaction was carried out in a 10 μL RT-reaction mixture containing 5 μL 2 × SYBR Green qPCR Mix, 0.2 μL forward and reverse primers (10 μmol/μL), and water to a final volume of 10 μL, and was performed under the following cycling conditions: an initial denaturing step of 10 min at 95 °C, followed by 40 cycles consisting of 5 s at 95 °C and 34 s at 60 °C.
All of the qPCR experiments were repeated in three biologicals. The data were analyzed using the 2-ΔΔCT method. All of the primers were synthesized by Sangon Biotech (Shanghai, China), as previously described, and their sequences are depicted in Table 3.
A general note: Quantitative PCR measures a nucleic acid by following its amplification.

Series [3] in a line: in vitro. To be noted: human; for Papp A→B at 300 μmol/L / Papp B→A at 300 μmol/L / Papp at 300 μmol/L: Caco-2, pH 6; for efflux ratio: Caco-2, pH 6, Efflux ratio in the absence of MK571. (Passage across Caco-2 layers is used to estimate intestinal permeability.)
Description: (§1) For the transport experiments, the cells were seeded in 24-mm i.d Transwell® inserts (polycarbonate membrane, 0.4 μM pore size, Corning Costar Co., (Corning, NY, USA) in six-well plates at a density of 4 × 10^5 cells/well, and were cultured for 21 days prior to the transport experiments. To monitor the integrity of the cell layers, transepithelial electrical resistance (TEER) values were measured using a Millicell-ERS Voltohmmeter (Millipore Corp, Bedford, MA, USA). TEER values above 513.7 Ω·cm^2 in the culture medium were selected for the transport experiment.
(§2) For the transport of GTCs across the Caco-2 monolayers, the inserts were gently washed twice and were equilibrated at 37 °C for 30 min with 0.01 M modified phosphate buffer saline (PBS+), which was supplemented with 0.45 M calcium chloride and 0.4 M potassium chloride, and adjusted to pH 6.0 [7]. In the transepithelial transport, GTCs at different concentrations in PBS+ (DMSO less than 0.5%) were loaded into the apical (AP) or basolateral (BL) side, the so-called donor side. The plate was then incubated at 37 °C. At designated time intervals, aliquots of 0.5 mL of sample were taken from the other side, the so-called receiver side, and then replaced with an equal volume of PBS+. After that, the samples were dried with a CoolSafe freeze dryer (LaboGene ApS, Bjarkesvej, Denmark) at −110 °C, and stored at −20 °C until analysis.
(§3) For the inhibition of transport, MK571 was used at a concentration of 93.11 μmol/L (50 μg/mL with a DMSO less than 0.3%). The cells were preincubated with the inhibitor for 30 min. Then, the bi-directional transport studies of the GTCs in the presence of MK-571 at both the donor and receiver side were performed as for the transport method described above.
(§4) The transport samples were analyzed by an Agilent LC 1260 system (Agilent Technologies, CA, USA) after redissolving with 50 μL methyl into vial inserts (100 uL; Agilent Technologies, CA, USA). The separation was performed on an Octadecylsilyl (ODS) reversed-phase column (4.6 mm i.d. × 250 mm, 4.5 μm; TC-C18, Agilent Technologies) using a diode array detector (DAD) at 278 nm. The mobile phase consisted of 15% methanol and 0.1% formic acid at a flow-rate of 0.8 mL/min.
(§5) The values were expressed as the mean ± standard deviation (SD) of three replications. The statistical significances of the difference between the various groups were analyzed using the Fisher’s least significant difference (LSD) procedure. For comparison between the two groups, the Student’s t-test was used. The differences were considered to be significant when p < 0.05.
The test system of series [4] is MRP2. The experiment in a line: MRP2 protein level in Caco-2 cells (Western blot). It counts as cell-based, human. The note with it: 300 μmol/L, 2 h. How it is done: After being washed by precooled PBS buffer three times, the total lysate was prepared on ice from 5 to 8 × 10^6 cells by lysis in a 150 μL Radio Immunoprecipitation Assay (RIPA) Lysis buffer containing 1% (v/v) Phenylmethanesulfonyl fluoride (PMSF) (Beyotime, Shanghai, China). The lysates were centrifuged at 13,000 rpm for 20 min at 4 °C, after mixing uniformity. The protein-containing supernatant was collected and the protein content was determined using the Bio-Rad protein assay. Western blotting was performed according to standard techniques, as previously described. In each lane of a Bio-Rad minigel system, 10 μg of protein was loaded. For the detection of BCRP, P-glycoprotein (MDR1), and MRP2, the following polyclonal antibodies were used: rabbit anti-BCRP (1:1000), rabbit anti-P-glycoprotein (1:1000), and rabbit anti-MRP2 (1:600). Horseradish peroxidase (HRP)-conjugated goat anti-rabbit (1:3000) were used as the secondary antibodies. As a loading control, the expression of β-actin was determined using an antibody against β-actin (1:40,000). Enhanced chemiluminescence (ECL) solutions were used for chemiluminescence.
On the technique in general: A western blot detects proteins with antibodies after separation by electrophoresis.

For series [5], the system named is P-glycoprotein. Details: method as in PMID 15285844. To be noted: KB-C2 cells; cited from earlier work.
The subject of series [6] is BCRP. The experiment in a line: BCRP mRNA level in Caco-2 cells (qRT-PCR). It counts as cell-based, human. To be noted: 2 h.
Description: All of the qPCR experiments were repeated in three biologicals. The data were analyzed using the 2-ΔΔCT method [39]. All of the primers were synthesized by Sangon Biotech (Shanghai, China), as previously described [40], and their sequences are depicted in Table 3.
The nature of series [7]: Bidirectional transepithelial transport across Caco-2 monolayers (Papp, efflux ratio), with and without MK571. The note with it: human; for Papp A→B at 300 μmol/L / Papp at 300 μmol/L / Papp B→A at 300 μmol/L: Caco-2, pH 6.
Description: as §1, §2, §3, §4, §5
For series [8] the following is noted: cited from earlier work.
Series [9] relates to MRP2. Details: method as in PMID 23146761. To be noted: rats, 24 h; cited from earlier work.
The subject of series [10] is BCRP. The arrangement: method as in PMID 20149610. The note with it: MCF-7 cell line, 100 μg/mL; cited from earlier work.
Series [11] concerns Caco-2 cell monolayers. The experiment in a line: Bidirectional transepithelial transport across Caco-2 monolayers (Papp, efflux ratio), with and without MK571. The note with it: Caco-2 monolayers, MK571 93.11 μmol/L.
Description: as §1, §2, §3, §4, §5
The mark [12] stands for this setting: Caco-2, pH 6, Efflux ratio in the absence of MK571, Caco-2 monolayers, no MK571.
The mark [13] stands for this setting: Caco-2, pH 6, with MK571 93.11 μmol/L (50 μg/mL), Efflux ratio in the presence of MK571, Caco-2 monolayers, MK571 93.11 μmol/L.
[14] abbreviates: rats, intragastric administration.

A word on the Papp A→B: it is the apparent permeability from the apical to the basolateral side of a cell layer. A word on the Papp B→A: it is how fast a substance crosses the layer from the basolateral side. As usually defined, the efflux ratio is the permeability from basolateral to apical divided by that in the opposite direction, in the common usage. `O=C(O[C@@H]1Cc2c(O)cc(O)cc2O[C@@H]1c1ccc(O)c(O)c1)c1cc(O)c(O)c(O)c1` [ECG, (−)-epicatechin gallate]: the “Plasma concentration following oral administration” value in [1] (650 mg/kg) is 33.5 µM. For the same compound, the “Increase of mRNA levels of MRP2” value in series [2] came to 85.18%. In series [3], the Papp A→B at 300 μmol/L turned out to be 0.138 ± 0.009 ×10⁻⁶ cm/s, the Papp B→A at 300 μmol/L is 0.387 ± 0.031 ×10⁻⁶ cm/s and the efflux ratio amounted to 2.82. Further, the “Increase of protein level of MRP2” value in [4] came to 24.67%. In series [5], the “Cellular accumulation of rhodamine-123 and daunorubicin” value (“Cellular accumulation” below) is “increase the cellular accumulation”. For the same compound, the BCRP gene expression result in series [6] was “upregulation”.

For orientation: Papp means the rate of passage across a membrane or cell layer, normalised by area and donor concentration. Regarding `Oc1cc(O)c2c(c1)O[C@H](c1ccc(O)c(O)c1)[C@@H](O)C2` [C, (+)-catechin], the “Increase of mRNA levels of MRP2” value in series [2] is recorded as 14.05%. The “Increase of protein level of MRP2” value in series [4] is 58.33%. In [7], the apparent permeability from apical to basolateral (Papp A→B) at 300 μmol/L worked out at 0.156 ± 0.011 ×10⁻⁶ cm/s. In addition, in series [7], the Papp at 300 μmol/L was below 1 ×10⁻⁶ cm/s. In addition, the efflux ratio amounted to 16.7 in [7] (setting [12]) and 1.34 in [7] (setting [13]).

`Oc1cc(O)c2c(c1)O[C@@H](c1cc(O)c(O)c(O)c1)[C@H](O)C2` [GC, (+)-gallocatechin]: the “Increase of mRNA levels of MRP2” value in series [2] is reported as 119.33%. Also, in series [3], the Papp A→B at 300 μmol/L was 0.264 ± 0.021 ×10⁻⁶ cm/s, the Papp B→A at 300 μmol/L stood at 0.875 ± 0.028 ×10⁻⁶ cm/s, the Papp at 300 μmol/L was below 1 ×10⁻⁶ cm/s and the efflux ratio worked out at 3.32. The “Increase of protein level of MRP2” value in [4] is recorded as 37.67%.

Turning to `Oc1cc(O)c2c(c1)O[C@H](c1ccc(O)c(O)c1)[C@H](O)C2` [EC, (−)-epicatechin], the Bioavailability in series [8] (setting [14]) is 31%. Besides, the “Plasma concentration following oral administration” value in [1] (250 mg/kg) is 53 µM. Moreover, the “Increase of mRNA levels of MRP2” value in series [2] was determined as 41.67%. In series [4], the “Increase of protein level of MRP2” value is reported as 60.00%. Also, in series [6], the BCRP gene expression result was “upregulation”. In series [7], the Papp A→B at 300 μmol/L was 0.152 ± 0.017 ×10⁻⁶ cm/s and the Papp B→A at 300 μmol/L came to 1.69 ± 0.163 ×10⁻⁶ cm/s. Further, the efflux ratio in [7] (setting [12]) worked out at 11.2. The efflux ratio in series [7] (setting [13]) came out at 1.06.

As to `O=C(O[C@@H]1Cc2c(O)cc(O)cc2O[C@@H]1c1cc(O)c(O)c(O)c1)c1cc(O)c(O)c(O)c1` [EGCG, (−)-epigallocatechin gallate], the “Protein level of MRP2 on the hepatocyte canalicular membrane” value in series [9] is listed as “significantly decreased”. Further, the Bioavailability in series [8] (setting [14]) is recorded as 0.1%. For the same compound, the “mRNA transcription and protein level of BCRP” value in series [10] is listed as “not changed”. Besides, in series [1] (2500 mg/kg), the “Plasma concentration following oral administration” value was 244.3 µM. In addition, the “Increase of mRNA levels of MRP2” value in [2] is 89.57%. The “Increase of protein level of MRP2” value in series [4] stood at 42.67%. In series [5], the “Cellular accumulation” value was “increase the cellular accumulation”. Also, the BCRP gene expression result in series [6] was “upregulation”. Moreover, the Papp A→B at 300 μmol/L in series [7] was 0.093 ± 0.008 ×10⁻⁶ cm/s. Also, the Papp B→A at 300 μmol/L in series [7] turned out to be 0.257 ± 0.01 ×10⁻⁶ cm/s. Besides, the values for the efflux ratio in series [7] (setting [12]) and in series [7] (setting [13]) were 2.75 and 1.05, respectively.

As to `Oc1cc(O)c2c(c1)O[C@H](c1cc(O)c(O)c(O)c1)[C@H](O)C2` [EGC, (−)-epigallocatechin], the Bioavailability in series [8] (rat, in vivo, po) is reported as 13.7%. Moreover, the “Increase of mRNA levels of MRP2” value in [2] is 103.58%. In [3], the Papp A→B at 300 μmol/L was determined as 0.246 ± 0.01 ×10⁻⁶ cm/s, the Papp B→A at 300 μmol/L stood at 0.674 ± 0.062 ×10⁻⁶ cm/s and the efflux ratio was determined as 2.74. Besides, the “Increase of protein level of MRP2” value in [4] is listed as 35.67%. For the same compound, the “Cellular accumulation” value in series [5] was “increase the cellular accumulation”.

Turning to `CN(C)C(=O)CCSC(SCCC(=O)O)c1cccc(/C=C/c2ccc3ccc(Cl)cc3n2)c1` (stereo not shown) [MK-571, MK-571 sodium salt hydrate, reference compound], the “Effect of MK-571 on the efflux of eight catechins” value in series [11] is recorded as “significantly inhibit”.

As for `O=C(O[C@@H]1Cc2c(O)cc(O)cc2O[C@H]1c1ccc(O)c(O)c1)c1cc(O)c(O)c(O)c1` [CG, (−)-catechin gallate], in series [2], the “Increase of mRNA levels of MRP2” value is on record as 123.09%. In series [3], the Papp A→B at 300 μmol/L was found to be 0.139 ± 0.012 ×10⁻⁶ cm/s, the Papp B→A at 300 μmol/L stood at 0.651 ± 0.042 ×10⁻⁶ cm/s, the Papp at 300 μmol/L was below 1 ×10⁻⁶ cm/s and the efflux ratio worked out at 4.68. Further, the “Increase of protein level of MRP2” value in series [4] was 132.00%. The BCRP gene expression entry in [6] is reported as “upregulation”.

Turning to `O=C(O[C@@H]1Cc2c(O)cc(O)cc2O[C@H]1c1cc(O)c(O)c(O)c1)c1cc(O)c(O)c(O)c1` [GCG, (−)-gallocatechin gallate], the “Increase of mRNA levels of MRP2” value in series [2] was 133.15%. In series [4], the “Increase of protein level of MRP2” value is 20.67%. Further, the BCRP gene expression entry in [6] is given as “upregulation”. Also, in [7], the Papp A→B at 300 μmol/L is 0.103 ± 0.021 ×10⁻⁶ cm/s, the Papp B→A at 300 μmol/L stood at 0.293 ± 0.013 ×10⁻⁶ cm/s and the Papp at 300 μmol/L was below 1 ×10⁻⁶ cm/s. Further, the efflux ratio in series [7] (setting [12]) came out at 2.84. Further, in series [7] (setting [13]), the efflux ratio is 1.24.
